In ChEMBL document CHEMBL1201862, “PubChem BioAssay data set” (2004):
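Protocol summary: plate cells (96-well), add compound at 5 concentrations, incubate 48 h, interpolate endpoints linearly. GI50 = concentration required for 50% inhibition of growth.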 Activity calls are given as the source filed them. Cut-off read from the data, not from the text of the source: active = GI50 up to about 1.1 µM and inactive = higher.

How the values were obtained:
Assay in all cases: NCI tumour cell line growth inhibition, 48 h
[1] = test system: OVCAR-8
[2] = test system: DU-145
[3] = test system: HOP-92
[4] = test system: MOLT-4
[5] = test system: SK-MEL-2
[6] = test system: TK-10
[7] = test system: A498
[8] = test system: OVCAR-4
[9] = test system: KM12
[10] = test system: UO-31
[11] = test system: MDA-MB-231
[12] = test system: NCI-H23
[13] = test system: 786-0
[14] = test system: SNB-75
[15] = test system: NCI-H460
[16] = test system: SNB-19
[17] = test system: SF-295
[18] = test system: SW-620
[19] = test system: CCRF-CEM
[20] = test system: OVCAR-5
[21] = test system: HCT-116
[22] = test system: UACC-62
[23] = test system: EKVX
[24] = test system: HOP-62
[25] = test system: MCF7
[26] = test system: MDA-MB-435
[27] = test system: UACC-257
[28] = test system: NCI/ADR-RES
[29] = test system: ACHN
[30] = test system: M14
[31] = test system: NCI-H522
[32] = test system: PC-3
[33] = test system: HCT-15
[34] = test system: COLO 205
[35] = test system: Malme-3M
[36] = test system: SR
[37] = test system: CAKI-1
[38] = test system: K562
[39] = test system: SK-OV-3
[40] = test system: U-251
[41] = test system: SK-MEL-28
[42] = test system: OVCAR-3
[43] = test system: IGROV-1
[44] = test system: SF-539
[45] = test system: SF-268
[46] = test system: HCC 2998
[47] = test system: RXF 393
[48] = test system: BT-549
[49] = test system: Hs-578T
[50] = test system: SK-MEL-5
[51] = test system: NCI-H226
[52] = test system: HT-29
[53] = test system: A549
[54] = test system: HL-60

SMILES: CCOC(=O)c1nc2c(Cl)c3ncccc3cc2[nH]c1=O
- GI50 [1]: 29.9 µM (inactive)
- GI50 [2]: > 100 µM (inactive)
- GI50 [3]: 40.6 µM (inactive)
- GI50 [4]: 10.4 µM (inactive)
- GI50 [5]: 22.4 µM (inactive)
- GI50 [6]: > 100 µM (inactive)
- GI50 [7]: 79.6 µM (inactive)
- GI50 [8]: 49.1 µM (inactive)
- GI50 [9]: 31.6 µM (inactive)
- GI50 [10]: 55.5 µM (inactive)
- GI50 [11]: 18.1 µM (inactive)
- GI50 [12]: 29.3 µM (inactive)
- GI50 [13]: 35.6 µM (inactive)
- GI50 [14]: 17.2 µM (inactive)
- GI50 [15]: 16.8 µM (inactive)
- GI50 [16]: 48.1 µM (inactive)
- GI50 [17]: 22.8 µM (inactive)
- GI50 [18]: 43.3 µM (inactive)
- GI50 [19]: 17.5 µM (inactive)
- GI50 [20]: 61.7 µM (inactive)
- GI50 [21]: 31.8 µM (inactive)
- GI50 [22]: 14.6 µM (inactive)
- GI50 [23]: 9.08 µM (inactive)
- GI50 [24]: 25.6 µM (inactive)
- GI50 [25]: 30.3 µM (inactive)
- GI50 [26]: 32.1 µM (inactive)
- GI50 [27]: 46.7 µM (inactive)
- GI50 [28]: 30.1 µM (inactive)
- GI50 [29]: 95.7 µM (inactive)
- GI50 [30]: 27.9 µM (inactive)
- GI50 [31]: 34.4 µM (inactive)
- GI50 [32]: 30.9 µM (inactive)
- GI50 [33]: 19 µM
- GI50 [34]: > 100 µM (inactive)
- GI50 [35]: > 100 µM (inactive)
- GI50 [36]: 8.73 µM (inactive)
- GI50 [37]: 66.5 µM (inactive)
- GI50 [38]: 26.1 µM (inactive)
- GI50 [39]: > 100 µM (inactive)
- GI50 [40]: 23 µM (inactive)
- GI50 [41]: 59.3 µM (inactive)
- GI50 [42]: 26.2 µM (inactive)
- GI50 [43]: 53.5 µM (inactive)
- GI50 [44]: 34.8 µM (inactive)
- GI50 [45]: 44.6 µM (inactive)
- GI50 [46]: 19.6 µM (inactive)
- GI50 [47]: 55 µM (inactive)
- GI50 [48]: 21.5 µM (inactive)
- GI50 [49]: 31.7 µM (inactive)
- GI50 [50]: 9.04 µM (inactive)
- GI50 [51]: 6.71 µM (inactive)
- GI50 [52]: 38 µM (inactive)
- GI50 [53]: 28.4 µM (inactive)
- GI50 [54]: 14.2 µM (inactive)
